From patent US7348401B2, “Peptides that inhibit complement activation” (priority 2003, dated 2008)
Like-named read-outs stand apart in the source and are kept apart here.

What was measured:
classical pathway = assay: Classical pathway component assay (immune complex, ELISA for C5a, SC5b-9, C3a); type: biochemical, human; settings: for complement inhibiting activity (C5a and SC5b-9 production), alanine scan of Peptide 7: immune complex-classical pathway assay, compared with Peptide 7
Protocol: The inhibition of the classical pathway by the peptides was measured by incubating human plasma in the presence and absence of peptides with an immune complex generated on a surface and then monitoring for the production of complement components C5a, SC5b-9, and C3a. To generate the immune complex, a 10 mg/mL solution of BSA in PBS was incubated at 56° C. for 30 minutes and then used to coat the surface of a microplate by diluting to 50 μg/mL at pH 9.6 and incubating for one hour at 37° C. The plate was washed and then incubated with 18 μg/mL mouse anti-BSA IgG2a (Sigma) for one hour at 37° C. Pooled human plasma with and without various concentrations of peptide were incubated for 30 minutes at 37° C. with the generated immune complex and the reaction was stopped with the addition of EDTA. The plasma samples were then analyzed with commercially available ELISA's for the production of C5a (Pharmingen), SC5b-9 (Quidel), and C3a (Quidel).

[1] = tested on: classical pathway; antibody sensitized sheep erythrocyte cells; assay: Classical pathway hemolytic assay (RBC hemolysis assay); type: cell-based, human
Protocol: Inhibition of the classical pathway by the peptides was measured using a standard hemolysis assay, which monitors the lysis of sheep erythrocytes as a result of terminal complex formation (see e.g. FIG. 1, FIG. 10). Various concentrations of peptide were incubated with 50 μL pooled human plasma (diluted 1:30 with GVB^++), 5×10^7 antibody sensitized sheep erythrocyte cells, and GVB^++ buffer to a final volume of 200 μL. The reaction was incubated at 37° C. for one hour and centrifuged. The percentage of lysis was determined by measuring the optical density of the supernatant at 414 nm. 100% lysis was determined by the optical density at 414 nm of the supernatant from a control sample consisting of 5×10^7 antibody sensitized sheep erythrocyte cells in water. The percent inhibition was calculated as the (% lysisno peptide−% lysispeptide)/% lysisno peptide×100.

complement component C5 = target: T1, complement component C5 (Homo sapiens, UniProt P01031); assay: Phage clone binding to C5 and free-peptide competition assay
T1 construct: purchased Advanced Research Technologies
Protocol: Peptides were identified by panning an M13 phage library (New England Biolabs), a random 12mer peptide library with a diversity of 10^11 different peptide structures, against complement component C5. The phage library was panned against C5 using three different methods for immobilizing C5. The binding reactions all contained 2×10^11 phage particles in PBS containing 0.5% BSA and 0.3% Tween 20. The binding reactions were carried out at 25° C. for two hours and then unbound phage were removed by washing 5 times with PBS containing 0.5% BSA and 0.3% Tween20. The phage were eluted by acid (0.2 M Glycine pH 2.2, 1 mg/mL BSA) and immediately neutralized with 1 M Tris pH 9.1. Following elution, recovered phage were amplified in ER2738 E. coli (NEB) and subjected to two more rounds of panning as described above. The methods for immobilizing C5 include directly coating C5 (Advanced Research Technologies) to the surface (1 μg/mL), capturing biotinylated C5 (1 μg/mL) on a neutravidin (Pierce) coated surface, and capturing biotinylated C5a (1 μg/mL) on a neutravidin (Pierce) coated surface. C5 and C5a (Quidel) were biotinylated by incubating with 10 fold molar excess of Sulfo-NHS-LC-LC-Biotin for 2 hours at room temperature at pH 7.4 and then removing excess biotin by gel filtration. A negative selection was performed in the final round against neutravidin for the two latter screening methods. DNA from twenty randomly selected clones from each of the three final libraries was isolated and sequenced.
The binding sites of the peptides were further probed via C5-binding competition assays. Increasing concentrations of each phage clone were incubated for 2 hours with 200 ng of biotinylated C5 in PBS containing 0.5% BSA. The phage bound C5 complex was captured on a neutravidin coated microplate for 20 minutes at room temperature and then washed with PBS containing 0.5% BSA. A peroxidase labeled anti-M13 antibody (Pharmacia) was used to detect the amount of phage bound to C5 with OPD substrate. Competition assays with free peptide were carried out in a similar manner except that one concentration of each phage clone was used which was determined as the concentration giving approximately 50% binding in the previous titration. Free peptide was added to the phage clones at concentrations of 50, 10 and 1 μM and incubated with the biotinylated C5 and the assay was carried out as above.

[2] = tested on: complement system activated by zymosan; assay: Alternative activation pathway zymosan assay (ELISA for C5a, SC5b-9, C3a); type: biochemical; settings: 2 mg/mL zymosan, human plasma
Protocol: The peptides were evaluated for involvement in activation of the complement system by the presence of zymosan. Zymosan, or yeast cell wall, has largely been described as an alternative pathway activator. In addition, there are sugars on the surface of the yeast cell wall which are capable of activating the lectin pathway. Therefore, zymosan can be considered as a general complement activator.
Varying concentrations of peptide were incubated with 2 mg/mL zymosan in pooled human plasma. The reactions were incubated at 37° C. for one hour and then stopped by the addition of EDTA. The samples were centrifuged, the plasma removed, and analyzed with commercially available ELISA's for the production of C5a (Pharmingen), SC5b-9 (Quidel), and C3a (Quidel).

alternative pathway = assay: Alternative activation pathway C.A. membrane assay (ELISA for C5a, SC5b-9, C3a); type: biochemical; settings: cellulose acetate hemodialysis membrane, human plasma
Protocol: Inhibition of the alternative pathway by the peptides was determined by incubating pooled human plasma in the presence and absence of various concentrations of peptide with 20 mg of cellulose acetate hemodialysis membrane at 37° C. for one hour. The reaction was stopped with EDTA and then the samples were analyzed with commercially available ELISA's for the production of C5a (Pharmingen), SC5b-9 (Quidel), and C3a (Quidel).

[3] = classical pathway, immune complex, human plasma

T1 sequence (P01031 19-1676): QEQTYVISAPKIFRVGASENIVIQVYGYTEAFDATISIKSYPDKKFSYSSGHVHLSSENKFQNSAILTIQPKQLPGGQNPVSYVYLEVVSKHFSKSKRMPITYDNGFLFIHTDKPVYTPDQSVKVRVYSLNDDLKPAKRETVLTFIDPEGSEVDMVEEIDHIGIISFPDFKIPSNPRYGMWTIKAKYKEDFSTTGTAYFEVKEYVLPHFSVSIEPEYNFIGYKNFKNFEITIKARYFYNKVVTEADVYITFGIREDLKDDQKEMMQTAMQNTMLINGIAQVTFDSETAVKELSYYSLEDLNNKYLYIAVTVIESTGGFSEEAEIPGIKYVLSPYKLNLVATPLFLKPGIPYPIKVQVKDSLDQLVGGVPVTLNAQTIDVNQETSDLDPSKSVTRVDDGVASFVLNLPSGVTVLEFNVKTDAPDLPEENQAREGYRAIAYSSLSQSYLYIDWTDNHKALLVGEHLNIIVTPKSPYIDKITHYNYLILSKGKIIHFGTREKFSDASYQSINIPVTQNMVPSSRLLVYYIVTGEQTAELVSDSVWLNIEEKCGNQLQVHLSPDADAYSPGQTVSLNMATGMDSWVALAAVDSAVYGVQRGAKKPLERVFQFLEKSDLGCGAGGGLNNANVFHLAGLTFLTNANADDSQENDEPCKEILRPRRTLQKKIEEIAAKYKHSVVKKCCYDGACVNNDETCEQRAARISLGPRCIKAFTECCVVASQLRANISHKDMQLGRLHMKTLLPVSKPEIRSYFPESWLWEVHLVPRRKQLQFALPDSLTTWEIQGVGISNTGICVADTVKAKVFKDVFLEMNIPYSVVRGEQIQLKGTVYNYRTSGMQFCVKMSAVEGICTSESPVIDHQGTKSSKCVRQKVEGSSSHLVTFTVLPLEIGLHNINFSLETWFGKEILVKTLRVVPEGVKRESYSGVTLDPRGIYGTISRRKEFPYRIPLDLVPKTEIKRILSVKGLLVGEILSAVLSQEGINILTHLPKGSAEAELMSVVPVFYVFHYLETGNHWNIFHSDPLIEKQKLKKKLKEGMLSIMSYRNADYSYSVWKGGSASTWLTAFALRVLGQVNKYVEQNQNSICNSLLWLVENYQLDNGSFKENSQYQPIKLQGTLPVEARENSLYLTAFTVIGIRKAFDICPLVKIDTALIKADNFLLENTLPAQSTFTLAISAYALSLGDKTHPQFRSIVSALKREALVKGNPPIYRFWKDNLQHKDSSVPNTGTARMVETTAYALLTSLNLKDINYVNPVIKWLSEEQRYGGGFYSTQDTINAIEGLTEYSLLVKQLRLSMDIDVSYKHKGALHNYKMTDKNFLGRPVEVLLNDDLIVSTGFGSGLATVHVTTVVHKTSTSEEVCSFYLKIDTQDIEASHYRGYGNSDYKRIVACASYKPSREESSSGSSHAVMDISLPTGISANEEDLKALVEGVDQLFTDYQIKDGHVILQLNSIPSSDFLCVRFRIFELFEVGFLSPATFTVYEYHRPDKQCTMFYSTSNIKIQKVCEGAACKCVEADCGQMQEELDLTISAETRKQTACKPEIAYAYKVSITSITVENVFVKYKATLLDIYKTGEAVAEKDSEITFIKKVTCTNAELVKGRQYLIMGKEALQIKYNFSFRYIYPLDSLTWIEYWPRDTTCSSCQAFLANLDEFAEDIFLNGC

Row | Substance | inhibitory activity in RBC hemolysis assay compared with parent peptide [1] | further results
1 | 18: Peptide 7 with alanine substituted for a residue L on the amino-terminal side of the consensus sequence (SFNDALWRWEWP; complement inhibitor) [Peptide 18] | – | complement inhibiting activity (C5a and SC5b-9 production), alanine scan of Peptide 7 (classical pathway): slightly greater inhibitory activity
2 | 19: Peptide 7 with alanine substituted for a residue L on the amino-terminal side of the consensus sequence (SFNDLAWRWEWP; complement inhibitor) [Peptide 19] | – | complement inhibiting activity (C5a and SC5b-9 production), alanine scan of Peptide 7 (classical pathway): slightly greater inhibitory activity
3 | 20: Peptide 7 with alanine substituted for residue W on the amino-terminal side of the consensus sequence (SFNDLLARWEWP; complement inhibitor) [Peptide 20] | – | complement inhibiting activity (C5a and SC5b-9 production), alanine scan of Peptide 7 (classical pathway): slightly greater inhibitory activity
4 | 112: Peptide 46 with a tri-peptide substituted for X1, third amino acid glutamic acid (EAEVRWEFPL; complement inhibitor) [Peptide 112] | enhanced the levels of inhibitory activity | –
5 | 115: Peptide 46 with a tri-peptide substituted for X1, third amino acid glutamic acid (LAEVRWEFPL; complement inhibitor) [Peptide 115] | enhanced the levels of inhibitory activity | –
6 | 119: Peptide 46 with a tri-peptide substituted for X1, third amino acid glutamic acid (TTEVRWEFPL; complement inhibitor) [Peptide 119] | enhanced the levels of inhibitory activity | –
7 | 120: Peptide 46 with a tri-peptide substituted for X1, third amino acid glutamic acid (TLEVRWEFPL; complement inhibitor) [Peptide 120] | enhanced the levels of inhibitory activity | –
8 | DSTWTNFRWEFY [Peptide 8] | – | competition among phage clones and free peptides for binding to C5 (complement component C5; free peptide at 50, 10 and 1 μM): significant competition; specific binding to complement component C5 (complement component C5; phage panning / phage clone binding): specifically bound complement component C5; inhibition of hemolysis ([1]; 100 uM peptide): significant inhibition of hemolysis; C3a generation [2]: no observeable effect; C5a production [2]: inhibited; SC5b-9 production [2]: inhibited; C3a production (alternative pathway): no effect; C5a generation (alternative pathway): dose-dependent inhibition; SC5b-9 generation (alternative pathway): dose-dependent inhibition; C3a production (classical pathway; [3]): neither of these peptides produced an effect; C5a production (classical pathway; [3]): dose-dependent increase in the inhibition; SC5b-9 production (classical pathway; [3]): dose-dependent increase in the inhibition
9 | Peptide 46: 10-mer: Peptide 13 with the two residues removed from the carboxyl terminus (TQDNRWEFPL; complement inhibitor) | appears to increase the activity | –
10 | Peptide 50: eight-mer: Peptide 13 with two amino acids removed from both ends (DNRWEFPL; complement inhibitor) | – | original activity retained in RBC hemolysis assay ([1]; relative to Peptide 13): 100%
11 | Peptide 53: Peptide 50 with glutamic acid substituted for the aspartic acid at position 1 (ENRWEFPL; complement inhibitor) | appeared to increase the inhibitory activity | –
12 | Peptide 54: Peptide 50 with asparagine substituted for the aspartic acid residue (NNRWEFPL; complement inhibitor) | little effect on the inhibitory activity | –
13 | Peptide 55: Peptide 50 with arginine at position 3 changed to lysine (DNKWEFPL; complement inhibitor) | lowers the inhibiting activity | –
14 | Peptide 56: Peptide 50 with arginine at position 3 changed to histidine (DNHWEFPL; complement inhibitor) | lowers the inhibiting activity | –
15 | Peptide 60: Peptide 50 with tryptophan replacing the phenylalanine at X4 (DNRWEWPL; complement inhibitor) | more severe losses | –
16 | Peptide 61: Peptide 50 with tyrosine substituted for the phenylalanine at position 6 (DNRWEYPL; complement inhibitor) | minimal loss of activity | –
17 | Peptide 64: Peptide 50 with leucine replacing the phenylalanine at X4 (DNRWELPL; complement inhibitor) | more severe losses | –
18 | Peptide 83: Peptide 46 derivative with a glutamic acid at X1; listed in both the X2 and X1 series (AAEVRWEFPL; complement inhibitor) | highest level of inhibitory activity | –
19 | Peptide 84: Peptide 46 derivative with a glutamic acid at X1 (TAEVRWEFPL; complement inhibitor) | highest level of inhibitory activity | inhibitory activity in RBC hemolysis assay compared with parent peptide ([1]; listed as SEQ ID NO 84): enhanced the levels of inhibitory activity
20 | Peptide 90: Peptide 46 derivative with isoleucine at X1 (TAIVRWEFPL; complement inhibitor) | almost comparable activity | –
21 | Peptide 91: Peptide 46 derivative with leucine at X1 (TALVRWEFPL; complement inhibitor) | almost comparable activity | –
22 | Peptide 95: Peptide 46 derivative with proline at X1 (TAPVRWEEPL; complement inhibitor) | almost comparable activity | –
